# Source: patent US20200255415A1, “TETRASUBSTITUTED ALKENE COMPOUNDS AND THEIR USE FOR THE TREATMENT OF BREAST CANCER” (Eisai R&D Management Co., Ltd., priority 2016, published 2020)
# Target: T1, human CYP3A4 (Homo sapiens, UniProt P08684)
# T1 construct: human CYP3A4 using liver microsomes (0.1 mg/mL); from tissue; host or cells: liver microsomes
# Assay: Time-dependent inhibition assay (IC50 shift), liver microsomes
# Type: in vitro ADME
# Settings: 8 concentrations 0 to 10 μmol/L, 30 min pre-incubation; 3 μmol/L midazolam and 15.6 μmol/L testosterone probes
# Description: One of these approaches uses multiple test compound concentrations at a single incubation time, e.g. the “IC50 shift” approach. In an IC50 shift experiment, the IC50 is determined for a CYP marker activity before and after the test compound has been incubated with enzyme and the co-factor nicotinamide adenine dinucleotide phosphate (NADPH) for a set preincubation time (Grimm et al, 2009).
# The IC50 shift approach was used to determine whether compounds are time-dependent inhibitors of human CYP3A4 using liver microsomes (0.1 mg/mL). A 30-minute pre-incubation time point was selected, where compounds (9 concentrations, 0 to 30 μmol/L) are incubated at 37° C. in presence and absence of 1 mmol/L NADPH. Following the pre-incubation period, 5 μmol/L midazolam (the probe substrate) was added and formation of hydroxymidazolam was measured by high-performance liquid chromatography-mass spectrometry (LC-MS/MS) analysis following a 5 minute incubation period. Any decrease in the formation of hydroxymidazolam, in peak area ratios to vehicle control, was used to calculate three IC50 values (0 min pre-incubation, 30 min pre-incubation with NADPH, and 30 min pre-incubation without NADPH). […] Assays were performed in duplicate, and mifepristone was used as positive control. In Table 3, “Yes” indicates a TDI shift greater than or equal to 3. “No” indicates a TDI shift greater than or equal to 1 and less than 3.
# The IC50 shift approach was also used to determine whether Compound 69 of PCT International Application Publication No. WO/2016/196346 is a time-dependent inhibitor of human CYP3A4 using liver microsomes. Similar to the experimental design described above, a 30-minute pre-incubation time point was selected. Minor variations to the method described above were that Compound 69 of PCT International Application Publication No. WO/2016/196346 was tested at 8 concentrations (0 to 10 μmol/L). Following the pre-incubation period, 3 μmol/L midazolam was added and formation of hydroxymidazolam was measured following a 2 minute incubation period. Since under these experimental conditions, the formation of hydroxymidazolam followed first order kinetics (considered as a linear process), these changes in assay design are not expected to impact the IC50 determinations. In parallel, the IC50 shift assay was also performed with 15.6 μmol/L testosterone (0.05 mg/mL liver microsomes, 10 minute incubation) as second probe substrate. Assays for both probe substrates were performed in triplicate, and mifepristone was used as positive control.
# T1 sequence (P08684 whole entry): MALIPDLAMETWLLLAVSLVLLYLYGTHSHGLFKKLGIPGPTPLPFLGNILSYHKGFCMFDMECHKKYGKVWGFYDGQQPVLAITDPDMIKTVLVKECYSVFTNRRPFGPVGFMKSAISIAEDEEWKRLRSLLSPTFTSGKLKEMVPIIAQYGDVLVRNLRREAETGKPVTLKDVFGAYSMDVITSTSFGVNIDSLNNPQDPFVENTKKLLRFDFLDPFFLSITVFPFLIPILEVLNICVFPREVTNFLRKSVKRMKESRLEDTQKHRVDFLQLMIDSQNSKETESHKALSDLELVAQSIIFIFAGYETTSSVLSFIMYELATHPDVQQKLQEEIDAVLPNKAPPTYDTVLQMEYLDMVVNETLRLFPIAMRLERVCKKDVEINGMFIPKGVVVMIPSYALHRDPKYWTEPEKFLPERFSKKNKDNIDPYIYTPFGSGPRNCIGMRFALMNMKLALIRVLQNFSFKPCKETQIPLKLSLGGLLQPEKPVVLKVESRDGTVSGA
row,SMILES,CYP3A4 TDI shift
1,CN(C)C(=O)/C=C/CNCCOc1ccc(/C(=C(/CC(F)(F)F)c2ccccc2)c2ccc3[nH]nc(F)c3c2)cc1 [reference compound],greater than 3

# Same assay, conditions: IC50 shift; human liver microsomes, 30 min pre-incubation, midazolam probe
row,SMILES,CYP3A4 TDI
1,O=C(/C=C/CNCCOc1ccc(/C(=C(\c2ccccc2)C2CCC2)c2ccc3[nH]ncc3c2)cn1)N1CCCC1 [Compound 37],Yes (“Yes” indicates a TDI shift greater than or equal to 3)
2,"CNC(=O)/C=C/CNCCOc1ccc(/C(=C(\c2ccccc2)C2CCC2)c2ccc3[nH]nc(F)c3c2)cc1.Cl [Compound 31, (E)-4-((2-(4-((E)-2-cyclobutyl-1-(3-fluoro-1H-indazol-5-yl)-2-phenylvinyl)phenoxy)ethyl)amino)-N-methylbut-2-enamide]",Yes (“Yes” indicates a TDI shift greater than or equal to 3)
3,CNC(=O)/C=C/CNCCCOc1ccc(/C(=C(/CC(F)(F)F)c2ccccc2)c2ccc3[nH]nc(F)c3c2)cn1.Cl [Compound 61],No (“No” indicates a TDI shift greater than or equal to 1 and less than 3)
4,"CC/C(=C(/c1ccc(OCCNC/C=C/C(=O)N2CCCC2)cc1)c1ccc2[nH]nc(F)c2c1)c1ccccc1.Cl [Compound 29, (E)-4-((2-(4-((E)-1-(3-fluoro-1H-indazol-5-yl)-2-phenylbut-1-en-1-yl)phenoxy)ethyl)amino)-1-(pyrrolidin-1-yl)but-2-en-1-one]",No (“No” indicates a TDI shift greater than or equal to 1 and less than 3)
5,"CNC(=O)CCCNCCOc1ccc(/C(=C(/CC(F)(F)F)c2ccccc2)c2ccc3[nH]ncc3c2)cn1.Cl [Compound 40, (Z)—N-methyl-4-((2-((5-(4,4,4-trifluoro-1-(1H-indazol-5-yl)-2-phenylbut-1-en-1-yl)pyridin-2-yl)oxy)ethyl)amino)butanamide]",Yes (“Yes” indicates a TDI shift greater than or equal to 3)
6,CC/C(=C(/c1ccc(OCCNC/C=C/C(=O)N2CCCC2)nc1)c1ccc2[nH]nc(F)c2c1)c1ccccc1.Cl [Compound 30],No (“No” indicates a TDI shift greater than or equal to 1 and less than 3)
7,"Cl.O=C(/C=C/CNCCOc1ccc(/C(=C(/CC(F)(F)F)c2ccccc2)c2ccc3[nH]ncc3c2)cn1)N1CCCC1 [Compound 16, (E)-1-(pyrrolidin-1-yl)-4-((2-((5-((Z)-4,4,4-trifluoro-1-(1H-indazol-5-yl)-2-phenylbut-1-en-1-yl)pyridin-2-yl)oxy)ethyl)amino)but-2-en-1-one]",Yes (“Yes” indicates a TDI shift greater than or equal to 3)
8,O=C(/C=C/CNCCOc1ccc(/C(=C(\c2ccccc2)C2CCC2)c2ccc3[nH]nc(F)c3c2)cc1)N1CCCC1 [Compound 34],Yes (“Yes” indicates a TDI shift greater than or equal to 3)
9,"Cl.O=C(/C=C/CNCCOc1ccc(/C(=C(/CC(F)(F)F)c2ccccc2)c2ccc3[nH]nc(F)c3c2)cc1)N1CCCC1 [Compound 13, (E)-1-(pyrrolidin-1-yl)-4-((2-(4-((E)-4,4,4-trifluoro-1-(3-fluoro-1H-indazol-5-yl)-2-phenylbut-1-en-1-yl)phenoxy)ethyl)amino)but-2-en-1-one]",No (“No” indicates a TDI shift greater than or equal to 1 and less than 3)
10,Cl.O=C(/C=C/CNCCOc1ccc(/C(=C(/CC(F)(F)F)c2ccccc2)c2ccc3[nH]nc(F)c3c2)cc1)N1CCOCC1 [Compound 17],No (“No” indicates a TDI shift greater than or equal to 1 and less than 3)
11,"CC/C(=C(/c1ccc(OCCNC/C=C/C(=O)NC)nc1)c1ccc2[nH]nc(F)c2c1)c1ccccc1.Cl [Compound 27, (E)-4-((2-((5-((Z)-1-(3-fluoro-1H-indazol-5-yl)-2-phenylbut-1-en-1-yl)pyridin-2-yl)oxy)ethyl)amino)-N-methylbut-2-enamide]",Yes (“Yes” indicates a TDI shift greater than or equal to 3)
12,Cl.O=C(/C=C/CNCCOc1ccc(/C(=C(/CC(F)(F)F)c2ccccc2)c2ccc3[nH]nc(F)c3c2)cn1)N1CCCC1 [Compound 15],No (“No” indicates a TDI shift greater than or equal to 1 and less than 3)
13,"CC/C(=C(/c1ccc(OCCNC/C=C/C(=O)NC)cc1)c1ccc2[nH]nc(F)c2c1)c1ccccc1.Cl [Compound 26, (E)-4-((2-(4-((E)-1-(3-fluoro-1H-indazol-5-yl)-2-phenylbut-1-en-1-yl)phenoxy)ethyl)amino)-N-methylbut-2-enamide]",No (“No” indicates a TDI shift greater than or equal to 1 and less than 3)
14,Cl.[2H]C([2H])([2H])N(C(=O)/C=C/CNCCOc1ccc(/C(=C(/CC(F)(F)F)c2ccccc2)c2ccc3[nH]ncc3c2)cc1)C([2H])([2H])[2H] [Compound 23],Yes (“Yes” indicates a TDI shift greater than or equal to 3)
15,"Cl.NC(=O)/C=C/CNCCOc1ccc(/C(=C(/CC(F)(F)F)c2ccccc2)c2ccc3[nH]nc(F)c3c2)cc1 [Compound 57, (E)-4-((2-(4-((E)-4,4,4-trifluoro-1-(3-fluoro-1H-indazol-5-yl)-2-phenylbut-1-en-1-yl)phenoxy)ethyl)amino)but-2-enamide]",No (“No” indicates a TDI shift greater than or equal to 1 and less than 3)
16,"Cl.NC(=O)/C=C/CNCCOc1ccc(/C(=C(/CC(F)(F)F)c2ccccc2)c2ccc3[nH]nc(F)c3c2)cn1 [Compound 56, (E)-4-((2-((5-((Z)-4,4,4-trifluoro-1-(3-fluoro-1H-indazol-5-yl)-2-phenylbut-1-en-1-yl)pyridin-2-yl)oxy)ethyl)amino)but-2-enamide]",No (“No” indicates a TDI shift greater than or equal to 1 and less than 3)
17,"CNC(=O)CCCNCCOc1ccc(/C(=C(/CC(F)(F)F)c2ccccc2)c2ccc3[nH]nc(F)c3c2)cc1.Cl [Compound 39, (E)-N-methyl-4-((2-(4-(4,4,4-trifluoro-1-(3-fluoro-1H-Indazol-5-yl)-2-phenylbut-1-en-1-yl)phenoxy)ethyl)amino)butanamide]",No (“No” indicates a TDI shift greater than or equal to 1 and less than 3)
18,"CNC(=O)CCCNCCOc1ccc(/C(=C(/CC(F)(F)F)c2ccccc2)c2ccc3[nH]ncc3c2)cc1.Cl [Compound 38, (E)-N-methyl-4-((2-(4-(4,4,4-trifluoro-1-(1H-indazol-5-yl)-2-phenylbut-1-en-1-yl)phenoxy)ethyl)amino)butanamide]",Yes (“Yes” indicates a TDI shift greater than or equal to 3)
19,"Cl.O=C(/C=C/CNCCOc1ccc(/C(=C(\c2ccccc2)C2CCC2)c2ccc3[nH]nc(F)c3c2)cn1)N1CCCC1 [Compound 36, (E)-4-((2-((5-((Z)-2-cyclobutyl-1-(3-fluoro-1H-indazol-5-yl)-2-phenylvinyl)pyridin-2-yl)oxy)ethyl)amino)-1-(pyrrolidin-1-yl)but-2-en-1-one]",Yes (“Yes” indicates a TDI shift greater than or equal to 3)
20,"CC/C(=C(/c1ccc(OCCNC/C=C/C(=O)NC)nc1)c1ccc2[nH]ncc2c1)c1ccc(F)cc1Cl.Cl [Compound 59, (E)-4-((2-((5-((Z)-2-(2-chloro-4-fluorophenyl)-1-(1H-indazol-5-yl)but-1-en-1-yl)pyridin-2-yl)oxy)ethyl)amino)-N-methylbut-2-enamide]",Yes (“Yes” indicates a TDI shift greater than or equal to 3)
21,"O=C(/C=C/CNCCOc1ccc(/C(=C(/CC(F)(F)F)c2ccccc2)c2ccc3[nH]nc(F)c3c2)cn1)NCCO [Compound 7, (E)-N-(2-hydroxyethyl)-4-((2-((5-((Z)-4,4,4-trifluoro-1-(3-fluoro-1H-indazol-5-yl)-2-phenylbut-1-en-1-yl)pyridin-2-yl)oxy)ethyl)amino)but-2-enamide]",No (“No” indicates a TDI shift greater than or equal to 1 and less than 3)
22,"CNC(=O)/C=C/CNCCOc1ccc(/C(=C(/CC(F)(F)F)c2ccccc2)c2ccc3[nH]ncc3c2)cc1 [Compound 10, (E)-N-methyl-4-((2-(4-((E)-4,4,4-trifluoro-1-(1H-indazol-5-yl)-2-phenylbut-1-en-1-yl)phenoxy)ethyl)amino)but-2-enamide]",Yes (“Yes” indicates a TDI shift greater than or equal to 3)
